Data from US10821160B2, “L-asparaginase variants and fusion proteins with reduced L-glutaminase activity and enhanced stability” (priority 2016, dated 2020).
Where “and” joins values, the source holds several entries; their conditions need not be identical. Equal entries are not always repeated.

Experiments:
NC(=O)C[C@H](N)C(=O)O [1] = experiment: purified protein, by the assay type; type: biochemical, Erwinia chrysanthemi; settings: other: Asn, 37° C
Method: (§1) L-asparaginase activity was determined using a continuous spectroscopic enzyme-coupled assay as previously described (Schalk, et al. (2014) J. Biol. Chem. 289:33175-33186). In brief, the assay measures the production of L-aspartate through the 1:1 oxidation of reduced NADH. The conversion of NADH to NAD^+ was measured spectrophotometrically as a decrease in absorbance at 340 nm at 37° C. All measurements were taken in triplicate. Rates were fit to the Michaelis-Menten equation using SIGMAPLOT software (Systat Software Inc).
Using colorimetric enzyme-coupled assays, L-asparaginase and L-glutaminase activity of the enzymes was determined. […] Seventeen of the 18 mutants had reduced L-glutaminase activity (Table 7). However, for most of the mutants, this decrease was concomitant with a decline in the L-asparaginase activity. Using the criteria of (i) ≥60% retained L-asparaginase activity (relative to Erw-WT) and (ii) ≤5% L-glutaminase versus and L-asparaginase activity, mutants ErA-E63Q, ErA-S254P, ErA-A31I+E63Q and ErA-S254N+E63Q were selected for further study.

[2] = molecular target: T1, Erwinia chrysanthemi L-asparaginase (ErA) variant A31I-E63Q (ErA-DM2), SEQ ID NO:4 (Dickeya chrysanthemi, UniProt P06608, A52I/E84Q); type: biochemical
T1 construct: lacking the first 21-amino acid residue signal peptide; His6-SUMO (yeast Smt3p) (N, cleaved yes); made in house; host or cells: E. coli BL21(DE3) C41
Method: (§2) A conventional assay for determining L-glutaminase activity (Gella & Pascual (1982) Anal. Biochem. 127:322-5) was used with some modifications. The purified enzyme was mixed into a solution containing 50 mM Tris-HCl pH 8.5, 1 mg/mL BSA, 7 U GDH (Glutamate dehydrogenase, Sigma-Aldrich), 3 mM INT (Iodonitrotetrazolium chloride, Sigma-Aldrich), 100 mM PMS (Phenazine methosulfate, Sigma-Aldrich), and 100 mM NAD+. […] The latter, in the presence of NAD+ and under the catalysis of GDH, is broken further into α-ketoglutarate and ammonia. NADH produced by this second reaction, together with INT serve as inputs to the third reaction, where the formation of INT-formazan under the catalysis of PMS can be followed spectrophotometrically as an increase in absorbance at 500 nm. All reactions were carried out at 37° C. 1 IU of enzyme is defined as the amount of enzyme used to produce 1 μmole of product in 1 minute at 37° C.
(§3) Using colorimetric enzyme-coupled assays, L-asparaginase and L-glutaminase activity of the enzymes was determined.

[3] = molecular target: T2, Erwinia chrysanthemi L-asparaginase (ErA) variant E63Q-S254N (ErA-DM1), SEQ ID NO:3 (Dickeya chrysanthemi, UniProt P06608, E84Q/S275N); type: biochemical
T2 construct: lacking the first 21-amino acid residue signal peptide; His6-SUMO (yeast Smt3p) (N, cleaved yes); made in house; host or cells: E. coli BL21(DE3) C41
Method: as §2, §3

[4] = molecular target: T3, Erwinia chrysanthemi L-asparaginase (ErA) variant E63Q-S254Q (ErA-DM3), SEQ ID NO:5 (Dickeya chrysanthemi, UniProt P06608, E84Q/S275N); experiment: L-glutaminase activity, GDH/INT coupled assay; type: biochemical; settings: Gln, head prints 50 mM
T3 construct: lacking the first 21-amino acid residue signal peptide; His6-SUMO (yeast Smt3p) (N, cleaved yes); made in house; host or cells: E. coli BL21(DE3) C41
Method: as §2, §3

[5] = molecular target: T4, Erwinia chrysanthemi L-asparaginase (ErA) variant E63Q-S254Q (ErA-DM3), SEQ ID NO:5 (Dickeya chrysanthemi, UniProt P06608, E84Q/S275Q); experiment: L-glutaminase activity, GDH/INT coupled assay; type: biochemical
T4 construct: lacking the first 21-amino acid residue signal peptide; His6-SUMO (yeast Smt3p) (N, cleaved yes); made in house; host or cells: E. coli BL21(DE3) C41
Method: as §2, §3

[6] = system: Erwinia chrysanthemi L-asparaginase (ErA) variant E63Q-S254Q (ErA-DM3), SEQ ID NO:5; experiment: L-glutaminase activity, GDH/INT coupled assay; type: biochemical; settings: Gln, 37° C
Method: as §2, §3

[7] = molecular target: T5, Erwinia chrysanthemi L-asparaginase, wild type (ErA-WT), SEQ ID NO:1 (Dickeya chrysanthemi, UniProt P06608); experiment: L-glutaminase activity, GDH/INT coupled assay; type: biochemical
T5 construct: lacking the first 21-amino acid residue signal peptide; His6-SUMO (yeast Smt3p) (N, cleaved yes); made in house; host or cells: E. coli BL21(DE3) C41
Method: as §2, §3

[8] = molecular target: T6, Escherichia coli L-asparaginase, wild type (EcA-WT), SEQ ID NO:9 (Escherichia coli, UniProt P00805); experiment: L-glutaminase activity, GDH/INT coupled assay; type: biochemical
T6 sequence (P00805 with tags, fused parts or gaps): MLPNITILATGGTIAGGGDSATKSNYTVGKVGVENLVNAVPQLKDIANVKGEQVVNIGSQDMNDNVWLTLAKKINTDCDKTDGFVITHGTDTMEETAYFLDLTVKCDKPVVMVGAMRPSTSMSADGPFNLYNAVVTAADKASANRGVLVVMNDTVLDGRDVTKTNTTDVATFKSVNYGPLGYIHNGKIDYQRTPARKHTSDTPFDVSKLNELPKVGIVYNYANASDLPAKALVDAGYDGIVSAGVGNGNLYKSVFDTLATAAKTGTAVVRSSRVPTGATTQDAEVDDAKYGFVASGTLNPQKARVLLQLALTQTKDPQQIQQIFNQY
Method: as §2

[9] = molecular target: Erwinia chrysanthemi L-asparaginase (ErA) variant A31I-E63Q-S254Q (ErA-TM2), SEQ ID NO:6 (Dickeya chrysanthemi, UniProt P06608, A52I/E84Q/S275Q)
Method: as §2

[10] = molecular target: T7, Erwinia chrysanthemi L-asparaginase (ErA) variant A31I-E63Q-S254N (ErA-TM1), SEQ ID NO:7 (Dickeya chrysanthemi, UniProt P06608, A52I/E84Q/S275N); type: biochemical
T7 construct: lacking the first 21-amino acid residue signal peptide; His6-SUMO (yeast Smt3p) (N, cleaved yes); made in house; host or cells: E. coli BL21(DE3) C41
Method: as §2

[11] = system: Erwinia chrysanthemi L-asparaginase (ErA) variants ErA-E63Q, ErA-DM2 (A31I-E63Q) and ErA-DM1 (E63Q-S254N); experiment: L-glutaminase activity of the mutants as a group vs ErA-WT; type: biochemical
Method: as §2, §3

[12] = molecular target: Erwinia chrysanthemi L-asparaginase (ErA) variant E63Q (ErA-E63Q), SEQ ID NO:2 (Dickeya chrysanthemi, UniProt P06608, E84Q); type: biochemical; set-up: lacking the first 21-amino acid residue signal peptide; His6-SUMO (yeast Smt3p) (N, cleaved yes); made in house; host or cells: E. coli BL21(DE3) C41
Method: as §2, §3

NC(=O)C[C@H](N)C(=O)O [13] = experiment: purified protein, by the assay type; type: biochemical, Erwinia chrysanthemi; settings: other: Asn, 37° C; remark: listed apart in the source
NC(=O)CC[C@H](N)C(=O)O = experiment: purified protein, by the assay type; settings: other: Gln, 37° C, pH 8.5
NC(=O)C[C@H](N)C(=O)O [14] = experiment: purified protein, by the assay type; settings: other: Asn, 37° C
[15] = substrate: NC(=O)C[C@H](N)C(=O)O; experiment: L-asparaginase activity, continuous spectroscopic enzyme-coupled assay; type: biochemical, Escherichia coli; settings: other: Asn, 37° C
Method: as §1
The parameters that define the asparagine-depleting power of such enzyme drugs are of significance. […] Enzymologists often combine these two parameters into a single value (kcat/Km) that is thought to represent the efficiency of the enzyme. […] Therefore, the ErA enzyme was selected for developing a variant with low L-glutaminase activity.

[16] = substrate: NC(=O)CC[C@H](N)C(=O)O; experiment: L-glutaminase activity, GDH/INT coupled assay; type: biochemical, Escherichia coli; settings: other: Gln, 37° C, pH 8.5
Method: as §2

Molecule: Erwinia chrysanthemi L-asparaginase (ErA) variant A31I-E63Q (ErA-DM2), SEQ ID NO:4 (Dickeya chrysanthemi; A52I/E84Q)
- Km (NC(=O)C[C@H](N)C(=O)O [1]): 0.037 mM

Molecule: NC(=O)CC[C@H](N)C(=O)O [Gln, L-glutamine]
- kobs @100 μM ([2]; 100 μM Gln): 0.105 s⁻¹
- kobs @0.5 mM ([2]; 0.5 mM Gln): 0.83 s⁻¹
- kobs @500 μM ([2]; 500 μM Gln): 0.73 s⁻¹
- kobs @1 mM ([2]; 1 mM Gln): 2.20 s⁻¹
- Km ([2]; Gln, 37° C): 2.73 ± 0.02 mM
- kcat ([2]; Gln, 37° C): 6.01 ± 0.13 s⁻¹
- kcat/Km ([2]; Gln, 37° C): 2.2 × 10^−3 sec^−1μM^−1
- kobs @100 μM ([3]; 100 μM Gln): 0.019 s⁻¹
- kobs @0.5 mM ([3]; 0.5 mM Gln): 0.11 s⁻¹
- kobs @500 μM ([3]; 500 μM Gln): 0.07 s⁻¹
- kobs @1 mM ([3]; 1 mM Gln): 0.18 s⁻¹
- Km ([3]; Gln, 37° C): 15.8 ± 0.3 mM
- kcat ([3]; Gln, 37° C): 2.93 ± 0.03 s⁻¹
- kcat/Km ([3]; Gln, 37° C): 0.19 × 10^−3 sec^−1μM^−1
- kobs @ 50 mM [4]: 0.11 s⁻¹
- kobs @100 μM ([5]; 100 μM Gln): 0.009 s⁻¹
- kobs @0.5 mM ([5]; 0.5 mM Gln): 0.0226 s⁻¹
- kobs @500 μM ([5]; 500 μM Gln): 0.02 s⁻¹
- kobs @1 mM ([5]; 1 mM Gln): 0.19 s⁻¹
- Km [6]: 84 mM
- kobs @100 μM ([7]; 100 μM Gln): 6.118 s⁻¹
- kobs @0.5 mM ([7]; 0.5 mM Gln): 15.87 s⁻¹
- kobs @500 μM ([7]; 500 μM Gln): 15.06 s⁻¹
- kobs @1 mM ([7]; 1 mM Gln): 19.22 s⁻¹
- kcat/Km ([7]; Gln, 37° C): 74.56 × 10^−3 sec^−1μM^−1
- kobs @ 50 mM ([7]; Gln, head prints 50 mM): 15.87 s⁻¹
- kobs @100 μM ([8]; 100 μM Gln): 0.047 s⁻¹
- kobs @0.5 mM ([8]; 0.5 mM Gln): 0.22 s⁻¹
- kobs @500 μM ([8]; 500 μM Gln): 0.22 s⁻¹
- kobs @1 mM ([8]; 1 mM Gln): 0.36 s⁻¹
- kobs @ 50 mM ([8]; Gln): 0.22 s⁻¹
- kcat/Km ([8]; Gln, 37° C): 0.64 × 10^−3 sec^−1μM^−1
- kobs @100 μM ([9]; 100 μM Gln): 0.0045 s⁻¹
- kobs @0.5 mM ([9]; 0.5 mM Gln): 0.0083 s⁻¹
- kobs @500 μM ([9]; 500 μM Gln): 0.0083 s⁻¹
- Km ([9]; Gln, 37° C): 47.5 mM
- kcat ([9]; Gln, 37° C): 1.836 ± 0.11 s⁻¹
- kcat/Km ([9]; Gln, 37° C): 0.04 × 10^−3 sec^−1μM^−1
- kobs @0.5 mM ([10]; 0.5 mM Gln): 0.11 s⁻¹
- kobs @1 mM ([10]; 1 mM Gln): 0.33 s⁻¹
- Km ([10]; Gln, 37° C): 28.2 mM
- kcat ([10]; Gln, 37° C): 5.6 ± 0.2 s⁻¹
- kcat/Km ([10]; Gln, 37° C): 0.19 × 10^−3 sec^−1μM^−1
- observed L-glutaminase rate reduced by ([11]; 0.5 mM Gln, relative to ErA-WT): 95-99%
- L-glutaminase efficiency (kcat/Km) reduced by ([11]; Gln, vs ErA-WT): 20-400 fold
- increased Km (fold higher compared ErA-WT) ([11]; Gln, vs ErA-WT): 8-44 fold
- reduced kcat (fold lower compared ErA-WT) ([11]; Gln, vs ErA-WT): 3-9 fold
- kobs @100 μM ([12]; 100 μM Gln): 0.098 s⁻¹
- kobs @0.5 mM ([12]; 0.5 mM Gln): 0.74 s⁻¹
- kobs @500 μM ([12]; 500 μM Gln): 0.72 s⁻¹
- kobs @1 mM ([12]; 1 mM Gln): 2.16 s⁻¹
- Km ([12]; Gln, 37° C): 3.86 ± 0.23 mM
- kcat ([12]; Gln, 37° C): 8.33 ± 0.16 s⁻¹
- kcat/Km ([12]; Gln, 37° C): 3.68 sec^−1mM^−1 and 3.68 × 10^−3 sec^−1μM^−1

Molecule: Erwinia chrysanthemi L-asparaginase (ErA) variant E63Q-S254N (ErA-DM1), SEQ ID NO:3 (Dickeya chrysanthemi; E84Q/S275N)
- Km (NC(=O)C[C@H](N)C(=O)O [13]): 0.185 mM

Molecule: Erwinia chrysanthemi L-asparaginase (ErA) variant A31I-E63Q-S254Q (ErA-TM2), SEQ ID NO:6 (Dickeya chrysanthemi; A52I/E84Q/S275Q)
- Km (NC(=O)CC[C@H](N)C(=O)O): 47.5 ± 0.7 mM

Molecule: Erwinia chrysanthemi L-asparaginase (ErA) variant E63Q (ErA-E63Q), SEQ ID NO:2 (Dickeya chrysanthemi; E84Q)
- Km (NC(=O)C[C@H](N)C(=O)O [14]): 0.051 mM

B1: Escherichia coli L-asparaginase, wild type (EcA-WT), SEQ ID NO:9 (Escherichia coli K-12) (protein)
chain: MLPNITILATGGTIAGGGDSATKSNYTVGKVGVENLVNAVPQLKDIANVKGEQVVNIGSQDMNDNVWLTLAKKINTDCDKTDGFVITHGTDTMEETAYFLDLTVKCDKPVVMVGAMRPSTSMSADGPFNLYNAVVTAADKASANRGVLVVMNDTVLDGRDVTKTNTTDVATFKSVNYGPLGYIHNGKIDYQRTPARKHTSDTPFDVSKLNELPKVGIVYNYANASDLPAKALVDAGYDGIVSAGVGNGNLYKSVFDTLATAAKTGTAVVRSSRVPTGATTQDAEVDDAKYGFVASGTLNPQKARVLLQLALTQTKDPQQIQQIFNQY
- Km [15]: 0.015 ± 0.0005 mM
- kcat [15]: 44.4 ± 0.3 s⁻¹
- kcat/Km [15]: 2.96e+06 M⁻¹ s⁻¹
- Km [16]: 1.38 ± 0.09 mM
- kcat [16]: 0.89 ± 0.01 s⁻¹
- kcat/Km [16]: 640 M⁻¹ s⁻¹
